From US20100215710A1, “Beta-2 Adrenergic Receptor Agonists and Antagonists and Modulation of Wound Healing” (The Regents of the University of California, priority 2005, published 2010) come the findings set out here.

In one experiment the test system is human keratinocytes. Nature of the experiment: Single cell migration assay, keratinocytes (clenbuterol, OA). The class given is cell-based. The method, then: All single cell migration assays were performed on cells plated on glass cover-slips inserted into 35 mm plastic dishes (MatTek Corp., Ashland, Mass.) that had been coated for 1 hour at 37° C. with 60 μg/ml collagen L Cells were plated onto the collagen-coated glass cover-slips at a density of 250 cells/mm^2 for 3-6 hours at 37° C. Cells were either untreated (control), pre-treated with 10 nM okadaic acid (OA) (10 nM) for 45 minutes prior to the addition of OA (10 nM) and clenbuterol (1 μM) (OA/Clen) or treated with either OA or clenbuterol (1 μM) alone at time 0. The dishes were inserted into metal plates, maintained at 37° C., on inverted Nikon Diaphot microscopes to monitor single cell migration. Time-lapse images of the cell migratory response were digitally captured every 10 minutes over a one-hour period by Q-Imaging Retiga-EX cameras (Burnaby, BC, Canada) controlled by a custom automation written in Improvision Open Lab software (Lexington, Mass.) on a Macintosh G4. After each cell's center of mass was tracked using the Open Lab software, migration speed and distance were calculated and imported to Excel (Microsoft Corporation, Redmond, Wash.). Significance was taken as p<0.01, using Student's t test (unpaired) to compare the means of the control and β-AR agonist-treated cell populations.
Keratinocytes were plated onto collagen-coated glass cover-slips at a concentration of 250 cells/mm^2 in KGM for 3-6 hours at 37° C. The migration of each single cell was monitored over a one-hour period, and the results were analyzed in excel as described. The speed of migration ([…]) is represented graphically in FIG. 1 Panel C, control n=57, clenbuterol n=57, OA n=60, OA-clenbuterol n=44. The data are representative of three independent experiments with at least two different keratinocyte strains. * P<0.01 between β-AR agonist and controls; #P<0.01 between OA-clenbuterol and clenbuterol alone.

The test system of the next experiment is phospho-ERK. As to the kind of experiment: Phospho-ERK immunolocalization in keratinocytes. Format: cell-based, human. On the procedure: Sterile glass cover-slips (Fisher Scientific, Pittsburgh, Pa.) were transferred into 12 well dishes and collagen-coated with 60 μg/ml collagen I in KGM for 1 hour at 37° C. Cover-slips were washed three times with KGM and 3×10^4 cells were added per well and allowed to attach overnight. Cells were untreated, treated with 1 μM β-AR agonist for 15 minutes, OA (10 nM) for 45 minutes, or pre-treated with OA (10 nM) for 30 minutes prior to the addition of 1 μM β-AR agonist for 15 minutes. All steps were performed at room temperature unless otherwise noted. Cover slips were washed twice in PBS and fixed for 10 minutes in 4% paraformaldehyde. Cover-slips were washed twice in PBS between each step. Cells were permeabilized for 5 minutes with 0.1% Triton-X-100/PBS, blocked with 5% goat serum/PBS for 20 minutes, primary monoclonal anti-vinculin antibody (Sigma, St. Louis, Mo.) or anti-phospho-ERK antibody (Cell Signaling Technology, Beverly, Mass.) were added drop-wise in 1% goat serum/PBS (1:100) and incubated for 1 hour at 37° C. A goat anti-mouse cy3 (Jackson labs, West Grove, Pa.) (1:100) antibody was then added in 1% goat serum/PBS for 1 hour at 37° C. Alexa 488-phalloidin (Molecular Probes, Eugene, Oreg.) (1:40) in PBS was added to the vinculin-stained cover-slips for 20 minutes. […]

The subject of the next experiment is adult human CECs. As to the kind of experiment: Immunofluorescent staining of actin and vinculin, adult human CECs. Format: cell-based. On the procedure: Sterile glass cover slips were transferred into 12 well dishes and collagen-coated with 60 μg/ml collagen I in PBS for 1 hour at 37° C. Cover slips were washed three times with CGM and 3×10^4 adult human CECs were added per well and allowed to attach for 3 hours or overnight. Cells were untreated (control […]), treated with 20 μM β-AR antagonist, 10 nM or 1 μM β-AR agonist for 15 minutes, 100 nM OA for 45 minutes, or pre-treated with 100 nM OA for 30 minutes prior to the addition of 10 nM or 1 μM β-AR agonist for 15 minutes. […]
Cells plated in the absence of β-AR agonist are polarized and crescent shaped with a broad lamellipodium, characteristic of the migratory phenotype (Ridley et al. (2003) “Cell migration: integrating signals from front to back” Science 302:1704-9). […] Image J was used to measure the actin and vinculin associated fluorescence by measuring the mean pixel intensity (MPI) of 25 cells from each condition. Control cells have an MPI of 40.3+/−4.8. β-AR agonist treatment has no significant effect on actin and vinculin associated fluorescence; the MPI of β-AR agonist-treated cells is 44.6+/−2.

On to `C=C1[C@@H](O)[C@@H]2O[C@]3(CC[C@H](/C=C/[C@@H](C)[C@@H]4CC(C)=C[C@@]5(O[C@H](C[C@@](C)(O)C(=O)O)CC[C@H]5O)O4)O3)CC[C@H]2O[C@@H]1[C@@H](O)C[C@H](C)[C@H]1O[C@@]2(CCCCO2)CC[C@H]1C` [OA, okadaic acid], for which the “effect on keratinocyte migration” value in the experiment on human keratinocytes (OA 10 nM alone) is “no effect”. Besides, the “effect on clenbuterol-induced reduction in speed” value with human keratinocytes (OA 10 nM pre-treatment, then OA plus 1 μM clenbuterol) is “completely prevents”. Moreover, the “effect on level of ERK phosphorylation or localization” value in the experiment on phospho-ERK (OA 10 nM alone) was “no effect”. For the same compound, the “effect on agonist-induced loss of lamellipodial phospho-ERK localization and nuclear/peri-nuclear decrease” value with phospho-ERK (OA 10 nM pre-treatment prior to 1 μM β-AR agonist) is listed as “prevents”. The “effect on cytoskeletal organization” value with adult human CECs (OA 100 nM alone) is recorded as “no effect”. Also, the “effect on β2-AR-mediated alterations in cytoskeletal organization” value in the experiment with adult human CECs (OA 100 nM pre-treatment prior to β-AR agonist 10 nM) is reported as “prevents”.
